The results in this text go back to ChEMBL document CHEMBL1614632, “Trend analysis of a database of intravenous pharmacokinetic parameters in humans for 670 drug compounds” (Drug Metab Dispos, 2008).

Data set [1] in a line: clinical. Particulars: human, in vivo, iv, CL.
Data set [2] can be described thus: clinical. Particulars: human, in vivo, iv, Vdss.
The nature of data set [3]: clinical. Particulars: human, in vivo, iv, t1/2.
A short description of data set [4]: clinical. Particulars: human, in vivo, iv.

As usually defined, the clearance is a measure of how efficiently the substance is removed, as volume per time. Broadly, the Vd is a proportionality between amount in the body and measured concentration, not a real space. High values mean wide distribution into tissue, low ones little distribution into tissue. Broadly, the half-life is the time in which the quantity being followed falls by half. A low value points to rapid decline. One may read the MRT as the average time that molecules of a dose stay in the body.

Turning to `Nc1ncn([C@H]2C[C@H](O)[C@@H](CO)O2)c(=O)n1` [DECITABINE], the clearance in the data set “clinical [1]” worked out at 130 mL/min/kg. The compound also registered a Vd in “clinical [2]” of 4.6 L/kg. Further, in the data set “clinical [3]”, the half-life was 0.58 h. The compound further came in with an MRT in “clinical [4]” of 0.59 h.

In the data set “clinical [1]”, `COCCCOc1ccnc(C[S+]([O-])c2nc3ccccc3[nH]2)c1C` (stereo unspecified) [RABEPRAZOLE] displayed a clearance of 4 mL/min/kg. In the data set “clinical [2]”, this compound gave a Vd of 0.22 L/kg. The same compound showed a half-life in “clinical [3]” of 1 h. Further, the MRT in the data set “clinical [4]” turned out to be 0.92 h.

Compound `COc1cc(CC(=O)NCC(=O)N(CCC(=O)O)Cc2ccc(OC)c(OC)c2)ccc1NC(=O)Nc1ccccc1C` returned a clearance in “clinical [1]” of 11 mL/min/kg. Moreover, the Vd in “clinical [2]” came out at 0.25 L/kg. The compound further had a half-life in “clinical [3]” of 1.6 h. Besides, the MRT in the data set “clinical [4]” was found to be 0.38 h.

Compound `COc1cc2c(N)nc(N3CCN(C(=O)OCC(C)(C)O)CC3)nc2c(OC)c1OC` [TRIMAZOSIN] had a clearance in “clinical [1]” of 0.96 mL/min/kg. In addition, in the data set “clinical [2]”, the Vd came out at 0.18 L/kg. In the data set “clinical [3]”, the half-life is 3.1 h. The compound also showed an MRT in the data set “clinical [4]” of 3.1 h.

Take `CC1CCCC(C)N1CCCC(O)(c1ccccc1)c1ccccn1` (stereo unspecified) [PIRMENOL]: the clearance in the data set “clinical [1]” is 1.8 mL/min/kg. The volume of distribution (Vd) in the data set “clinical [2]” stood at 1.4 L/kg. The same compound showed a half-life in “clinical [3]” of 8.4 h. In “clinical [4]”, the MRT was 13 h.

In the data set “clinical [1]”, `CN1C2CCCC1CC(NC(=O)c1nn(C)c3ccccc13)C2` (stereo unspecified) [GRANISETRON] yielded a clearance of 9.1 mL/min/kg. In the data set “clinical [2]”, this compound showed a Vd of 3.7 L/kg. In the data set “clinical [3]”, the half-life is 5.2 h. Further, the mean residence time MRT in “clinical [4]” is 6.7 h.

As for `C#CCN(C)[C@H](C)Cc1ccccc1` [SELEGILINE], the clearance in “clinical [1]” turned out to be 20 mL/min/kg. The distribution volume (Vd) in the data set “clinical [2]” was determined as 1.9 L/kg. Besides, in the data set “clinical [3]”, the half-life was 1.3 h. Besides, the MRT in “clinical [4]” was found to be 1.6 h.

In turn, `CN1CCOC(c2ccccc2)c2ccccc2C1` (stereo unspecified) [NEFOPAM] registered a clearance in “clinical [1]” of 12 mL/min/kg. Moreover, the Vd in “clinical [2]” was determined as 5.6 L/kg. Also, the half-life in the data set “clinical [3]” was 5 h. In the data set “clinical [4]”, the MRT came to 8.1 h.

In the case of `CC=CC1=C(C(=O)O)N2C(=O)[C@@H](NC(=O)[C@H](N)c3ccc(O)cc3)[C@H]2SC1` [CEFPROZIL], the clearance in “clinical [1]” came out at 2.9 mL/min/kg. The compound also registered a Vd in “clinical [2]” of 0.21 L/kg. In the data set “clinical [3]”, this compound had a half-life of 1.2 h. Also, the MRT in the data set “clinical [4]” was 1.2 h.

Take `CCOC(=O)Nc1ccc(NCc2ccc(F)cc2)nc1N` [FLUPIRTINE]: in “clinical [1]”, the clearance came to 1.6 mL/min/kg. The compound also gave a Vd in “clinical [2]” of 1.1 L/kg. In the data set “clinical [3]”, this compound had a half-life of 8.5 h. The MRT in the data set “clinical [4]” worked out at 11 h.

In turn, `C[C@@H]1C(=O)O[C@H]2[C@H](O)[C@@]34[C@H]5C[C@@H](C(C)(C)C)[C@]36[C@@H](OC(=O)[C@@H]6O)O[C@@]4(C(=O)O5)[C@@]12O` [GINKOLIDE B] registered a clearance in “clinical [1]” of 2.3 mL/min/kg. The Vd in the data set “clinical [2]” was found to be 0.91 L/kg. Also, in “clinical [3]”, the half-life is 5.2 h. This compound came in with an MRT in “clinical [4]” of 6.6 h.

On to `O=c1n(CCCN2CCN(c3cccc(Cl)c3)CC2)nc2ccccn12` [TRAZODONE], for which the clearance in “clinical [1]” was found to be 1.4 mL/min/kg. For the same compound, the Vd in the data set “clinical [2]” is 0.52 L/kg. Further, the half-life in “clinical [3]” is 7.3 h. In “clinical [4]”, this compound showed an MRT of 6.2 h.

Turning to `CCCCCN(CCCOC)C(=O)C(CCC(=O)O)NC(=O)c1ccc(Cl)c(Cl)c1` (stereo unspecified) [LOXIGLUMIDE], the clearance in the data set “clinical [1]” was found to be 1 mL/min/kg. This compound also yielded a Vd in the data set “clinical [2]” of 0.24 L/kg. Moreover, the half-life in the data set “clinical [3]” was 5.2 h. The same compound displayed an MRT in “clinical [4]” of 4 h.

On to `CC(=O)N[C@H]1[C@H]([C@H](O)[C@H](O)CO)OC(C(=O)O)=C[C@@H]1N=C(N)N` [ZANAMIVIR], for which the clearance in the data set “clinical [1]” was 1.6 mL/min/kg. For the same compound, in “clinical [2]”, the Vd was 0.23 L/kg. The half-life in “clinical [3]” was 1.7 h. In addition, the MRT in the data set “clinical [4]” stood at 2.4 h.

`CCC1(c2ccccc2)C(=O)NC(=O)NC1=O` [PHENOBARBITAL] returned a clearance in “clinical [1]” of 0.063 mL/min/kg. In “clinical [2]”, this compound yielded a Vd of 0.54 L/kg. This compound also had a half-life in the data set “clinical [3]” of 99 h. In addition, the MRT in “clinical [4]” amounted to 140 h.

In “clinical [1]”, `Cc1cc(O)c2c(=O)c3c(O)cc(O)c4c5c(O)cc(O)c6c(=O)c7c(O)cc(CO)c8c1c2c(c34)c(c65)c78` [PSEUDOHYPERICIN] showed a clearance of 0.62 mL/min/kg. In “clinical [2]”, this compound came in with a Vd of 0.56 L/kg. The compound also had a half-life in the data set “clinical [3]” of 20 h. The same compound displayed an MRT in the data set “clinical [4]” of 15 h.

For `C[C@H]1O[C@@H](O[C@H]2[C@@H](O)C[C@H](O[C@H]3[C@@H](O)C[C@H](O[C@H]4CC[C@@]5(C)[C@H](CC[C@@H]6[C@@H]5C[C@@H](O)[C@]5(C)[C@@H](C7=CC(=O)OC7)CC[C@]65O)C4)O[C@@H]3C)O[C@@H]2C)C[C@H](O)[C@@H]1O` [DIGOXIN], the clearance in the data set “clinical [1]” was 1.7 mL/min/kg. The compound further returned a Vd in the data set “clinical [2]” of 4.1 L/kg. In addition, in “clinical [3]”, the half-life was 38 h. For the same compound, the MRT in the data set “clinical [4]” worked out at 40 h.

In “clinical [1]”, `COc1ccc(C(=O)Nc2ccccc2CCC2CCCCN2C)cc1` (stereo unspecified) [ENCAINIDE] yielded a clearance of 13 mL/min/kg. In addition, the volume of distribution (Vd) in the data set “clinical [2]” is 2.2 L/kg. The half-life in the data set “clinical [3]” is 2.6 h. Besides, the MRT in “clinical [4]” amounted to 2.8 h.

On to `O=C1CN(/N=C/c2ccc(-c3ccc([N+](=O)[O-])cc3)o2)C(O)=N1` [DANTROLENE], for which the clearance in “clinical [1]” is 0.43 mL/min/kg. The Vd in the data set “clinical [2]” stood at 0.37 L/kg. Further, the half-life in “clinical [3]” was 10 h. In addition, the MRT in “clinical [4]” was determined as 14 h.

`CC1=C(CO)C2=C(C)C3(CC3)[C@@](C)(O)C(=O)C2=C1` [IROFULVEN] yielded a clearance in the data set “clinical [1]” of 140 mL/min/kg. For the same compound, the Vd in “clinical [2]” turned out to be 3.1 L/kg. This compound gave a half-life in the data set “clinical [3]” of 0.3 h. In addition, in “clinical [4]”, the MRT was 0.4 h.

In the data set “clinical [1]”, `Cc1ccnc2c1NC(=O)c1cccnc1N2C1CC1` [NEVIRAPINE] had a clearance of 0.3 mL/min/kg. For the same compound, the distribution volume (Vd) in “clinical [2]” came to 1.3 L/kg. In “clinical [3]”, this compound gave a half-life of 53 h. Further, in the data set “clinical [4]”, the MRT was 81 h.

Compound `COC(=O)C1=C(C)NC(C)=C(C(=O)OCC(C)C)C1c1ccccc1[N+](=O)[O-]` (stereo unspecified) [NISOLDIPINE] yielded a clearance in the data set “clinical [1]” of 15 mL/min/kg. Besides, the Vd in “clinical [2]” is 5.5 L/kg. The half-life in the data set “clinical [3]” is 11 h. The compound also came in with an MRT in “clinical [4]” of 6.5 h.

The compound `N=C(N)c1ccc(CNC(=O)[C@@H]2CCN2C(=O)[C@H](NCC(=O)O)C2CCCCC2)cc1` displayed a clearance in the data set “clinical [1]” of 1.9 mL/min/kg. In “clinical [2]”, this compound gave a Vd of 0.23 L/kg. In the data set “clinical [3]”, this compound showed a half-life of 1.6 h. In the data set “clinical [4]”, this compound yielded an MRT of 2 h.

Compound `CN(C)C(=N)N=C(N)N` [METFORMIN] had a clearance in “clinical [1]” of 7.4 mL/min/kg. In “clinical [2]”, this compound registered a Vd of 0.64 L/kg. For the same compound, in the data set “clinical [3]”, the half-life is 1.7 h. This compound showed an MRT in “clinical [4]” of 1.4 h.

In the case of `CCOc1ccccc1OC(c1ccccc1)C1CNCCO1` (stereo unspecified) [REBOXETINE], the clearance in “clinical [1]” turned out to be 0.82 mL/min/kg. The same compound yielded a Vd in “clinical [2]” of 0.65 L/kg. In addition, the half-life in “clinical [3]” was 10 h. The MRT in the data set “clinical [4]” is 13 h.

Regarding `COC(=O)C1=C(C)NC(C)=C(C(=O)OCCCN2CCC(c3ccccc3)(c3ccccc3)CC2)[C@@H]1c1cccc([N+](=O)[O-])c1` [DEXNIGULDIPINE], the clearance in the data set “clinical [1]” stood at 9.3 mL/min/kg. The compound further had a Vd in the data set “clinical [2]” of 8.4 L/kg. In the data set “clinical [3]”, this compound gave a half-life of 22 h. Also, the MRT in the data set “clinical [4]” stood at 15 h.

The compound `C[C@@](O)(/C=C/[C@H]1CC=CC(=O)O1)[C@@H](C[C@@H](O)\C=C/C=C\C=C\CO)OP(=O)(O)O` [FOSTRIECIN] gave a clearance in “clinical [1]” of 1.2 mL/min/kg. Further, the Vd in “clinical [2]” came out at 0.086 L/kg. This compound showed a half-life in “clinical [3]” of 1.5 h. In the data set “clinical [4]”, this compound displayed an MRT of 1.2 h.

`CN1CCN(C(=O)OC2c3nccnc3C(=O)N2c2ccc(Cl)cn2)CC1` (stereo unspecified) [ZOPICLONE]: in “clinical [1]”, the clearance worked out at 3.3 mL/min/kg. Further, the Vd in “clinical [2]” was 1.3 L/kg. In the data set “clinical [3]”, this compound gave a half-life of 5.2 h. The compound further had an MRT in the data set “clinical [4]” of 6.6 h.

`CN1C(=O)[C@H](O)C[C@H]1c1cccnc1` gave a clearance in “clinical [1]” of 1.8 mL/min/kg. In addition, the Vd in “clinical [2]” is 0.85 L/kg. In the data set “clinical [3]”, the half-life was 5.9 h. Further, the MRT in the data set “clinical [4]” amounted to 7.9 h.
